Key:
Plasmodium falciparum [1] = assay: NOVARTIS: Inhibition of Plasmodium falciparum 3D7 (drug-susceptible) proliferation in erythrocyte-based infection assay; type: functional, organism-based; settings: Plasmodium falciparum, 3D7
Plasmodium falciparum [2] = assay: NOVARTIS: Inhibition of Plasmodium falciparum W2 (drug-resistant) proliferation in erythrocyte-based infection assay; type: functional, organism-based; settings: Plasmodium falciparum, W2; read-out: EC50
[3] = NOVARTIS: Cytotoxicity against human hepatocellular carcinoma cell line (Huh7); type: toxicity, cell-based, Huh-7; settings: Huh7 cells (hepatocellular carcinoma cell line)

SMILES | EC50 (Plasmodium falciparum [1]) | EC50 (Plasmodium falciparum [2]) | CC50 [3]
c1ccc(C2CC(C3CC(c4ccccc4)OC(c4ccccc4)C3)CC(c3ccccc3)O2)cc1 (configuration not stated) | 1240 nM | 394 nM | > 10000 nM
N#Cc1c(NC(=O)CCl)c(C(=O)c2ccccc2)n2c1CCC2 | 298 nM | > 12500 nM | > 74200 nM
CC(C)(C)CC(=O)NCc1ccc(OC2CCN(CC(c3ccccc3)c3ccccc3)CC2)cc1 | 1160 nM | < 8.77 nM | > 10000 nM
Cc1c[n+](Cc2ccccc2)ccc1/C=C/c1ccccc1 | 502 nM | 543 nM | > 10000 nM
CCOC(=O)C(=O)N1c2ccc(C)cc2-c2c(ssc2=S)C1(C)C | 46.5 nM | 37.7 nM | > 100000 nM
CCCCCCCCCC[n+]1c(C)n(CC)c2cc(Cl)c(Cl)cc21 | 613 nM | 490 nM | 21000 nM
CCC(NC1CCCCC1)c1nc2ccccc2c(=O)n1C (configuration not stated) | 1110 nM | 888 nM | > 10000 nM
CC(C)(C)NC(=S)Nc1cccc(Cl)c1Cl | > 7240 nM | 2110 nM | > 100000 nM
C=CCOc1cccc(C(Nc2cccc(C)n2)c2ccc3cccnc3c2O)c1 (configuration not stated) | 5750 nM | 1560 nM | > 69400 nM
CCCCCN(C(=O)c1cccc(C(F)(F)F)c1)C(CC)c1nc2ccccc2c(=O)n1-c1ccccc1OC (configuration not stated) | 728 nM | 673 nM | > 10000 nM
Oc1c2c(nc3cc(-c4ccc(Cl)cc4)nn13)CCCC2 | 6480 nM | > 12500 nM | > 100000 nM
Cc1c2c(cc3c1ccc1ccccc13)C[N+]1(CCCCC1)C2 | 1290 nM | 657 nM | > 100000 nM
O=[N+]([O-])c1ccc(N2CCCN(C(=S)Nc3ccc(F)cc3Br)CC2)nc1 | 110 nM | 90.3 nM | > 100000 nM
Cc1cc(O)ccc1-c1cnc2ccccc2n1 | > 541 nM | 241 nM | > 10000 nM
COc1ccc(OC)c(C(=O)c2oc3ccccc3c2NC(=O)CCl)c1 | 10200 nM | 1380 nM | 15500 nM
Cc1cc(N2CCN(C/C=C/c3ccccc3)CC2)n2c(nc3ccccc32)c1C#N | 415 nM | 395 nM | > 10000 nM
O=[N+]([O-])c1cccc(C=NNc2nc(NN=Cc3cccc([N+](=O)[O-])c3)nc(Nc3cccc4ccccc34)n2)c1 | 509 nM | 442 nM | > 10000 nM
O=C(CSc1cn(CCNC(=O)c2ccc(F)cc2)c2ccccc12)Nc1ccccc1F | > 12500 nM | > 8090 nM | > 98900 nM
Cc1cc(C)n(N=Cc2cccc(Cl)c2)c(=O)c1C#N | > 12500 nM | 9060 nM | > 100000 nM
C=C[C@H]1CN2CC[C@H]1C[C@H]2[C@H](OC(=O)CC)c1ccnc2ccccc12 | 364 nM | 166 nM | > 10000 nM
CC(C)CC(=O)NCCCCNc1ccnc2cc(Cl)ccc12 | 620 nM | 430 nM | > 10000 nM
Cc1onc(-c2ccccc2Cl)c1C(=O)Nc1cc(Cl)ccc1Cl | 369 nM | 330 nM | > 100000 nM
O=C(NCCCCCCNC(=O)Nc1ccc(C2=NCCCN2)cc1)Nc1ccc(C2=NCCCN2)cc1 | 108 nM | < 3.28 nM | > 10000 nM

SMILES | EC50 (Plasmodium falciparum [1]) | EC50 (Plasmodium falciparum [2]) | CC50 [3]
CC[N+](C)(CC)CCSc1nc2ccccc2c(=S)n1-c1ccc(OC)cc1 | 285 nM | 451 nM | > 10000 nM
COc1ccc(C=NNc2nc3cc(Cl)ccc3[nH]2)cc1OC | 239 nM | 111 nM | > 89800 nM
O=S(=O)(NC1CCCC1)c1cccc2nonc12 | > 1600 nM | > 982 nM | > 10000 nM
COc1ccc(C2=C(c3ccc(OC)cc3)C3(c4ccccc4)C(=O)C2(c2ccccc2)C2C(=O)N(c4ccccc4[N+](=O)[O-])C(=O)C23)cc1 (configuration not stated) | 1190 nM | 580 nM | > 100000 nM
CCCCCOc1ccc(/C=C2/N=C(c3ccccc3)OC2=O)cc1 | > 116 nM | > 944 nM | > 10000 nM
C[n+]1cccc(CNC2=C(Cl)C(=O)c3ccccc3C2=O)c1 | 127 nM | 213 nM | > 10000 nM
Cn1c(C(C#N)C(=S)NC2CCCCC2)nc2cccnc21 (configuration not stated) | > 1250 nM | > 894 nM | > 10000 nM
COc1cccc(C2Sc3ccccc3NC3=C2C(=O)c2ccccc23)c1 (configuration not stated) | 577 nM | 362 nM | > 100000 nM
OC(CNCC1CCCO1)Cn1c2ccc(Br)cc2c2cc(Br)ccc21 (configuration not stated) | 261 nM | 99 nM | 20300 nM
O=C(NC(CN1CCCC1)c1ccccc1)C1CCCCN1S(=O)(=O)c1ccccc1 (configuration not stated) | 632 nM | 1260 nM | > 10000 nM
CCN(CC)C(=O)N1CCN(c2ccc(Nc3ccnc4cc5ccccc5cc34)cc2)CC1 | 961 nM | 2470 nM | > 100000 nM
Cc1cccc(NC(=O)c2cc(Cl)nc3ccccc23)c1 | 3670 nM | 1940 nM | > 100000 nM
Cc1onc(O)c1CC(N)C(=O)O (configuration not stated) | 158 nM | 302 nM | > 10000 nM
COc1ccc([C@@H]2Nc3ccc(C(C)=O)cc3[C@@H]3C=CC[C@@H]32)cc1[N+](=O)[O-] | > 1250 nM | 1760 nM | > 10000 nM
CCc1ccc(C(C)=NNc2nc(O)cc(-c3ccccc3)n2)cc1 | 1780 nM | > 1460 nM | > 10000 nM
COc1ccc([C@@H]2C[C@H](OC(=O)c3ccc4c(c3)OCO4)C(=O)N2C)cc1 | 1180 nM | > 1250 nM | > 10000 nM
CCOC(=O)c1cnn(-c2ccnc3cc(Cl)ccc23)c1CNC(C)c1ccco1 (configuration not stated) | 795 nM | 448 nM | 38900 nM
COc1ccc2nc3ccccc3c(N)c2c1 | 133 nM | 176 nM | 5720 nM
Cc1ccccc1OCC(O)Cn1c(NC2CCCCC2)nc2c1c(=O)[nH]c(=O)n2C (configuration not stated) | > 1700 nM | 549 nM | > 10000 nM
O=C(NNc1nc(-c2cc3ccccc3oc2=O)cs1)c1ccccc1 | > 1250 nM | > 981 nM | > 10000 nM
Cc1cccn2c(=O)c3cc(C(=O)NC4CCCC4)c(=N)n(CCc4ccccc4)c3nc12 | 2200 nM | 3290 nM | > 100000 nM
O=C(Nc1ccccc1)/C(=C\c1ccncc1)NC(=O)c1ccccc1 | > 1250 nM | > 955 nM | > 10000 nM
Cc1cc(C)nc(/N=C(\N)Nc2ccccc2O)n1 | 379 nM | 36.2 nM | > 100000 nM

SMILES | EC50 (Plasmodium falciparum [1]) | EC50 (Plasmodium falciparum [2]) | CC50 [3]
O=S(=O)(NCCCCNc1ccnc2cc(Cl)ccc12)c1ccc2ccccc2c1 | 268 nM | 4.95 nM | 6410 nM
COc1ccc(Nc2nc(NN=Cc3cc([N+](=O)[O-])ccc3OC)nc(Nc3ccc([N+](=O)[O-])cc3)n2)cc1 | 728 nM | 762 nM | > 100000 nM
CCC(CC)CN1CCC(O)(c2ccc3oc(C(=O)Nc4ccc5c(c4)OCO5)cc3c2)CC1 | 246 nM | 268 nM | > 100000 nM
COc1cccc(-c2nc3c(OC)ccc(OC)c3cc2CNCC(C)(C)CN(C)C)c1 | 244 nM | 186 nM | > 10000 nM
CC[n+]1c(SC)ccc2cc(OC)ccc21 | 92.4 nM | 186 nM | > 100000 nM
O=C(NCCN1CCCCC1)c1ccc(OC2CCN(CC3CCCCC3)CC2)c(Cl)c1 | 344 nM | 1170 nM | 5370 nM
CCC(c1nc2ccccc2c(=O)n1-c1ccc(Br)cc1)N(CCc1ccccc1)C(=O)c1cccc(C(F)(F)F)c1 (configuration not stated) | 871 nM | 545 nM | > 10000 nM
CCOC(=O)C(C)Oc1cccc2c(=O)n(CC(=O)Nc3ccc(OC(F)(F)F)cc3)ccc12 (configuration not stated) | > 1250 nM | > 1220 nM | > 10000 nM
S=C(NN=Cc1ccccn1)NC1CC2C=CC1C2 (configuration not stated) | 38.5 nM | 44.8 nM | 44300 nM
COc1ccc([N+](=O)[O-])cc1-c1ccc(C=C(C#N)c2nn(CCO)c(N)c2C#N)o1 | > 12500 nM | 2290 nM | > 100000 nM
COc1ccc(CN2C[C@H](Sc3nc4ccccc4[nH]3)C[C@H]2C(=O)NC2CC2)cc1C | 545 nM | 830 nM | 16500 nM
Oc1c(C(Nc2ccccn2)c2cccc(Cl)c2Cl)ccc2cccnc12 (configuration not stated) | 174 nM | 132 nM | > 100000 nM
COc1ccc(N2C(=O)[C@@H]3C[C@H]2CN3C(=O)c2cccc(Cn3nc(C)cc3C)c2)cc1Cl | > 1250 nM | 26.7 nM | > 3800 nM
O=C1C2CN(C(=O)Nc3ccccc3)C(c3ccc(Cl)cc3)C2C(=O)N1c1ccccc1 (configuration not stated) | > 1250 nM | > 958 nM | > 10000 nM
COc1ccc(CCNC(=O)CN(c2ccc(OC)c(OC)c2)S(=O)(=O)c2ccc(C)cc2)cc1OC | > 12500 nM | 1330 nM | > 100000 nM
CC(=O)c1cccc(CN2CCC(C(=O)Nc3ccc(-n4nc(C)cc4C)cc3)CC2)c1 | 2160 nM | 1950 nM | > 100000 nM
CCn1c(SCc2ccc(Cl)cc2Cl)nc2sc3c(c2c1=O)CCN(C)C3 | 942 nM | 900 nM | > 100000 nM
O=C(Nc1ccc(F)c(Cl)c1)c1c2c(nc3ccccc13)CCN(Cc1ccccc1)C2 | 799 nM | 96.7 nM | > 100000 nM
COc1ccccc1C1SCCN1C(=O)Nc1ccc(Cl)c(Cl)c1 (configuration not stated) | > 1020 nM | 2260 nM | > 10000 nM
COc1ccc(/C=C2/SC(=Nc3ccccc3)NC2=O)cc1 | 292 nM | 332 nM | > 100000 nM
CC(C)(C)NC(=O)C(c1ccncc1)N(Cc1ccccc1Cl)C(=O)c1ccc(-c2ccccc2)[nH]1 (configuration not stated) | > 6470 nM | > 3990 nM | 67400 nM
COc1ccc(NC(=O)c2cc3cc(C4(O)CCN(Cc5cc6ccccc6[nH]5)CC4)ccc3o2)cc1 | 272 nM | 650 nM | 20500 nM
Cc1ccc2nc(C)cc(NCCN(C)C)c2c1 | 360 nM | 709 nM | 59100 nM
